What all share (assay): inhibition of tumour cell growth, NCI panel, 48 h
The test system of assay [1] is SK-MEL-28 melanoma.
In assay [2] the test system is PC-3 prostate.
Assay [3] has as its system NCI-H522 lung.
Assay [4] relates to NCI-H23 lung.
The subject of assay [5] is HL-60(TB) leukemia.
Assay [6] has as its system SNB-75 CNS.
For assay [7], the system named is MDA-MB-231 breast.
In assay [8] the test system is CCRF-CEM leukemia.
Assay [9] concerns HOP-62 NSCLC.
Assay [10] concerns HT29 colon.

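In this assay, cells in 96-well plates receive the compound at five concentrations for 48 hours. Endpoints are linearly interpolated between the surrounding concentrations. GI50: concentration for 50% inhibition of growth. At the TGI there is no net growth.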 A value given as a limit tells only on which side of the number the result lay.

With `CC[C@@]1(OC(=O)CN)C(=O)OCc2c1cc1n(c2=O)Cc2c-1nc1cc3c(cc1c2CCl)OCO3`, the GI50 in assay [1] is 0.474 µM; in assay [2], 0.113 µM; in assay [3], 0.0257 µM; in assay [4] it was less than 0.01 µM; in assay [5] it was less than 0.01 µM; in assay [6], less than 0.0244 µM. Also, the GI50 is 1.9 µM in assay [7], less than 0.01 µM in [8], less than 0.01 µM in assay [9] and 0.052 µM in assay [10]. In addition, the TGI was 20.5 µM in assay [1]; 21.1 µM in assay [2]; 2.19 µM in [3]; 0.0885 µM in [4]; more than 34.3 µM in assay [7]; more than 100 µM in assay [8]. The TGI in assay [10] was determined as 1.22 µM.
With `CCCCCCCCOC(=O)c1c(C)[nH]c(/C=C2\N=C(c3ccc[nH]3)C=C2OC)c1C`, the GI50 in assay [1] is 0.25 µM; in [2], 0.0467 µM; in assay [3] it was 0.0316 µM; in assay [4] it was 0.0965 µM; in assay [5], 0.0688 µM; in [6], 0.0451 µM. Besides, the GI50 in assay [7] was less than 0.0182 µM; in assay [8] it was less than 0.0178 µM; in assay [9], 0.23 µM; in assay [10], less than 0.0179 µM. In addition, the TGI was 6.14 µM in [1]; more than 34.8 µM in assay [2]; 4.02 µM in assay [3]; 2.2 µM in assay [4]; 4.25 µM in [5]; 0.432 µM in assay [6]. In addition, the TGI was 0.517 µM in [7], more than 27.4 µM in assay [8], 11.7 µM in assay [9] and 1.43 µM in assay [10].
For `CCCCCN(CCCCC)CC(O)c1cc(Cl)ccc1OC` (configuration not stated), the GI50 in assay [1] is 1.63 µM; in assay [2], 11.3 µM; in [3], 1.98 µM; in assay [4] it was 5.79 µM; in assay [5] it was 5.05 µM; in assay [6], 0.197 µM. Moreover, the GI50 in [7] was 5.38 µM; in assay [8], 11.3 µM; in assay [9] it was 12 µM; in [10], 0.683 µM. Moreover, the TGI in assay [1] is 3.51 µM; in assay [2], 26.8 µM; in [3], 15.2 µM; in assay [4] it was 20.9 µM; in [5] it was 25.9 µM; in assay [6], 5.83 µM. Further, the TGI in assay [7] is 20 µM; in assay [8] it was 36 µM; in assay [9], 26.7 µM; in assay [10] it was 12 µM.
`CCN1CCN(c2cc(C)nc(N(CCCNc3ccnc4cc(Cl)ccc34)Cc3ccc4c(c3)OCO4)n2)CC1`: the GI50 was 1.84 µM in assay [1]; 3.6 µM in [2]; 2.03 µM in [3]; 7.4 µM in assay [4]; 1.9 µM in assay [5]; 1.59 µM in [6]. In addition, the GI50 is 1.93 µM in assay [7], 2.38 µM in [8], 2.73 µM in assay [9] and 1.95 µM in assay [10]. Moreover, the TGI in assay [1] is 3.46 µM; in assay [2], more than 100 µM; in assay [3], 4.76 µM; in [4], more than 100 µM; in assay [5], 4 µM; in assay [6] it was 3.57 µM. In addition, the TGI in assay [7] is 4.44 µM; in assay [8], 7.43 µM; in assay [9] it was 31.6 µM; in assay [10] it was 5.79 µM.
`COc1cccc(CN(C)c2ccc(CO)c(Cl)c2)c1`: the GI50 in assay [1] is 24.2 µM; in assay [2], 30.6 µM; in assay [3], 22 µM; in assay [4], 18.6 µM; in assay [5] it was 26 µM; in assay [6], 22.2 µM. The GI50 in assay [7] was 31 µM; in assay [8] it was 39.3 µM; in assay [9], 5.33 µM; in assay [10], 5.03 µM. The TGI in assay [1] is more than 100 µM; in assay [2], more than 100 µM; in assay [3], more than 74.3 µM; in assay [4], more than 100 µM; in [5], more than 87.1 µM; in [6], 98.4 µM. Moreover, the TGI in [7] is more than 100 µM; in assay [8] it was more than 100 µM; in [9], more than 87.7 µM; in assay [10], more than 100 µM.
For the compound `c1cc(-c2nnc(SSc3ncnc4nc[nH]c34)o2)ccn1`, the GI50 in [1] was 43.7 µM; in [2] it was 3.48 µM; in assay [3] it was 1.63 µM; in [4], 2.73 µM; in assay [5], 2.49 µM; in [6], 0.672 µM. Moreover, the GI50 in [7] was 4.45 µM; in assay [8], 1.24 µM; in assay [9], 2.52 µM; in assay [10], 2.42 µM. For the same compound, the TGI in [1], in [2], in [3], in assay [4], in [5] and in assay [6] was more than 100 µM each time. In addition, the TGI in assay [7], in [8], in [9] and in assay [10] was more than 100 µM each time.
`NS(=O)(=O)c1ccc(N=Nc2c(O)[nH]c3ccc(C(=O)NCc4ccncc4)cc23)cc1`: the GI50 in assay [1], in assay [2], in assay [3], in assay [4], in [5] and in assay [6] was more than 25 µM each time. Also, the GI50 in assay [7] was more than 25 µM; in assay [8] it was more than 25 µM; in assay [9], more than 25 µM; in assay [10] it was 24.6 µM. Also, the TGI in assay [1], in [2], in assay [3], in assay [4], in [5] and in assay [6] was more than 25 µM throughout. The TGI in assay [7], in assay [8], in assay [9] and in assay [10] was more than 25 µM in each case.
